Columns and labels:
[1] = molecular target: T1, cGMP-dependent protein kinase 1 (Homo sapiens) (UniProt Q13976); test: Selectivity interaction (KinomeScan (DiscoverX)) EUB0000229b PRKG1; details: at 10 µM
T1 sequence (whole entry): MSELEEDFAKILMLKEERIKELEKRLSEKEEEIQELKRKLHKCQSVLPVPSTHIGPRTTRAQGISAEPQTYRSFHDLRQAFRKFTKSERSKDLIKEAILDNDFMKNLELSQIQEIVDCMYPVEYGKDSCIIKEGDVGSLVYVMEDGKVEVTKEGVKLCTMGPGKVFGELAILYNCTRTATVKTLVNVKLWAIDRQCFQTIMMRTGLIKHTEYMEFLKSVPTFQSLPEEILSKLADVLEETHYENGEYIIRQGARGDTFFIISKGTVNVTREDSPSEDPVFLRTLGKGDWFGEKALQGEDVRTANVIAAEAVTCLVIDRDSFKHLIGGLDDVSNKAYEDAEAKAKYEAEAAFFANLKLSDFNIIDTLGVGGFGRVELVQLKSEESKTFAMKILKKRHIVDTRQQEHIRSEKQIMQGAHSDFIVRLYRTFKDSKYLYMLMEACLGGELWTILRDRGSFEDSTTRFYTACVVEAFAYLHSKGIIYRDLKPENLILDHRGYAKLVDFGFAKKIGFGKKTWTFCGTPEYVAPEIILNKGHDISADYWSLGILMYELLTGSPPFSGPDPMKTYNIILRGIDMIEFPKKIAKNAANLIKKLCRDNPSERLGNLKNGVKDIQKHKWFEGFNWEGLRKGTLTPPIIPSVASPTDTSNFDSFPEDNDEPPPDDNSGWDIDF

[2] = molecular target: Serine/threonine-protein kinase tousled-like 2 (Homo sapiens) (UniProt Q86UE8); test: Selectivity interaction (KinomeScan (DiscoverX)) EUB0000092b TLK2; details: at 10 µM
Chain of Serine/threonine-protein kinase tousled-like 2 (Homo sapiens) (Q86UE8 whole entry, looked up): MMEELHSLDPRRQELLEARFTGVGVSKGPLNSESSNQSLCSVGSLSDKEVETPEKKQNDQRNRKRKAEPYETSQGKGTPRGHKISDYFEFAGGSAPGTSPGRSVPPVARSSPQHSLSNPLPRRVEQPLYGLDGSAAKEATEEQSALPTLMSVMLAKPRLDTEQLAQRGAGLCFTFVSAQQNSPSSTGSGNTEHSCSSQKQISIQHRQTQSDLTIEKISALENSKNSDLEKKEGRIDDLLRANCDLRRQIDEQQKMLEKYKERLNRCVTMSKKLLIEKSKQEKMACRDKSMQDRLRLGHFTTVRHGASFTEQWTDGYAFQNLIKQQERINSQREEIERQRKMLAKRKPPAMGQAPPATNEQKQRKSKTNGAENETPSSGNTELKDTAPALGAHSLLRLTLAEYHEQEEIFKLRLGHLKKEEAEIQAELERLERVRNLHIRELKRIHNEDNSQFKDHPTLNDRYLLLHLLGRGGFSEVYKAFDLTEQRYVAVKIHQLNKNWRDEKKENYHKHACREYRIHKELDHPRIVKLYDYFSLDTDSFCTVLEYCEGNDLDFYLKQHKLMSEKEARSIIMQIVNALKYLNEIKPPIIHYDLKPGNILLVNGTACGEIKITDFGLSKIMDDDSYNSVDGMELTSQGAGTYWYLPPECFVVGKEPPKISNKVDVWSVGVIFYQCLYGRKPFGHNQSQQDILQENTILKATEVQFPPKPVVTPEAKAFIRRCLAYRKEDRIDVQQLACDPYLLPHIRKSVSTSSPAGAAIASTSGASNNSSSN

[3] = molecular target: Phosphatidylinositol 4-kinase beta (Homo sapiens, UniProt Q9UBF8); test: Selectivity interaction (KinomeScan (DiscoverX)) EUB0000655a PI4KB; details: at 10 µM
Chain of Phosphatidylinositol 4-kinase beta (Q9UBF8 2-816 limits assumed): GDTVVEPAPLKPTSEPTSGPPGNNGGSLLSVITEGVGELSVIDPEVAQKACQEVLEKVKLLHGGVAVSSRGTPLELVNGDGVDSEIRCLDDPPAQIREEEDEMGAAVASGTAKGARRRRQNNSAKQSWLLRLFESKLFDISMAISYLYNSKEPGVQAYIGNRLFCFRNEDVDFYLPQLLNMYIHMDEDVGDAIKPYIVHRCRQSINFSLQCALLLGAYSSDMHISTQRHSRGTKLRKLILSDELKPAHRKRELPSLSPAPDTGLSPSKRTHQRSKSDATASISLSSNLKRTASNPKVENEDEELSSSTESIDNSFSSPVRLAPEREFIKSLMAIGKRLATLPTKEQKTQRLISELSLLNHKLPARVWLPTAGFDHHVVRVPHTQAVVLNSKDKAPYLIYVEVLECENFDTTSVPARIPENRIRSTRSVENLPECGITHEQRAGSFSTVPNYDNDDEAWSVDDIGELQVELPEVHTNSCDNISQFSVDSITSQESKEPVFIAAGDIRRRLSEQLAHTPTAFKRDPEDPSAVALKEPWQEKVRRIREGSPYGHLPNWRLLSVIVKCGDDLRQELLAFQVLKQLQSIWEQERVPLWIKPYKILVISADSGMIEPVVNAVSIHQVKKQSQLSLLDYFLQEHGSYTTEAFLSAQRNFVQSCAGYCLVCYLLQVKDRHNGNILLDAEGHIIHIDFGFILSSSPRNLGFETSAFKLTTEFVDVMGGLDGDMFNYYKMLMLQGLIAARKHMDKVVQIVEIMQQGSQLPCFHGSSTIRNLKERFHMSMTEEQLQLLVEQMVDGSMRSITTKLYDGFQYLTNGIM

[4] = molecular target: Cyclin-dependent kinase 18 (Homo sapiens) (UniProt Q07002); test: Selectivity interaction (KinomeScan (DiscoverX)) EUB0001079a CDK18; details: at 1 µM
Chain of Cyclin-dependent kinase 18 (Homo sapiens) (Q07002 whole entry): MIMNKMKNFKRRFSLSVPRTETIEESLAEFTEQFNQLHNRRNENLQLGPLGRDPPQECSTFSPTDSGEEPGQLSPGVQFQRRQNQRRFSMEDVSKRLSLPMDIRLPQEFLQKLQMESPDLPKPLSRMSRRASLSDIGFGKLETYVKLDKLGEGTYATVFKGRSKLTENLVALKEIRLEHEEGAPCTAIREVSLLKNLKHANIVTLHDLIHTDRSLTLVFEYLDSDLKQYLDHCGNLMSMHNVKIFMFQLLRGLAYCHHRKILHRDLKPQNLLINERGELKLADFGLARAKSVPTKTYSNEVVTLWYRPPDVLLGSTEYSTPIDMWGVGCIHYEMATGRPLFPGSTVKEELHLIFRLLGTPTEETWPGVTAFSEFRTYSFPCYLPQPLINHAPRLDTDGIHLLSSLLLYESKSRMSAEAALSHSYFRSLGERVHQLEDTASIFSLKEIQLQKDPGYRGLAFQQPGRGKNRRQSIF

[5] = molecular target: Tyrosine-protein kinase JAK1 (Homo sapiens, UniProt P23458); test: Selectivity interaction (Kinase panel (KiNativ target engagement assay in Jurkat cells)) EUB0001635a JAK1; format: cell-based; details: Selectivity number of off-targets 0.0, Selectivity number of targets 233.0, Source Knowledge https://www.sciencedirect.com/science/article/pii/S2451945619300674?via%3Dihub, at 1 µM
Chain of Tyrosine-protein kinase JAK1 (P23458 whole entry): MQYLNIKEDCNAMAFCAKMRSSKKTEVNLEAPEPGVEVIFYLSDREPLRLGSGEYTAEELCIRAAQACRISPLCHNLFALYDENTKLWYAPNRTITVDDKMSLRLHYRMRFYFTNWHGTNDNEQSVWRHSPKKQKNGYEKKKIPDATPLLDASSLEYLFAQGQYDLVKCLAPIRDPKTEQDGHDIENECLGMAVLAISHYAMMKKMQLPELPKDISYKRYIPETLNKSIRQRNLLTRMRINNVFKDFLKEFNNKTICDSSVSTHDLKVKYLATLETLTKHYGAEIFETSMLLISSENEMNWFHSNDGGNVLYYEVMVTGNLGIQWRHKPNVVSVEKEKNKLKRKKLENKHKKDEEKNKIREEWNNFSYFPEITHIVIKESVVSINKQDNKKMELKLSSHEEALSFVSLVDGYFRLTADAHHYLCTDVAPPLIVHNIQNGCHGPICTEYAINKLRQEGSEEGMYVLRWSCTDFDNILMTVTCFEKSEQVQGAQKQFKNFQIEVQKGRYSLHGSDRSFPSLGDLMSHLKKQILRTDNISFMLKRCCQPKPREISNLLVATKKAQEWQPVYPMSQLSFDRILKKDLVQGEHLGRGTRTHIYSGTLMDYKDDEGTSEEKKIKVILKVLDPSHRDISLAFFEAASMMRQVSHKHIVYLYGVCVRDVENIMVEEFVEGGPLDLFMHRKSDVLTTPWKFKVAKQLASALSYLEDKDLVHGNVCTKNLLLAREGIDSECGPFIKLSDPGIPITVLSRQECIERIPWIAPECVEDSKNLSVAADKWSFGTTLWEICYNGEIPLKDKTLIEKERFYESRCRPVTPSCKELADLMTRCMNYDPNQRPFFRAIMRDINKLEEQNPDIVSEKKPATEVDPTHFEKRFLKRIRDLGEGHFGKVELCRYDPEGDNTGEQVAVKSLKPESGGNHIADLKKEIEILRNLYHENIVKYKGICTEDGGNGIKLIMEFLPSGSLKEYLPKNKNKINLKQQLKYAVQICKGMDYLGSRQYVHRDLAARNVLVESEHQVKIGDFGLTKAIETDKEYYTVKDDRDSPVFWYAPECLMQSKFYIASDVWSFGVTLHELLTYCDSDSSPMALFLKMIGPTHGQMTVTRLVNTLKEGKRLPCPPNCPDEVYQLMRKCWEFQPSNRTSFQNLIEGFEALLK

[6] = molecular target: Cyclin-dependent kinase 9 (Homo sapiens, UniProt P50750); test: Selectivity interaction (ActivX KiNativ screen (kinase selectivity in THP-1 cell lysates)) EUB0000639a CDK9; format: subcellular; details: lysate
Chain of Cyclin-dependent kinase 9 (P50750 whole entry): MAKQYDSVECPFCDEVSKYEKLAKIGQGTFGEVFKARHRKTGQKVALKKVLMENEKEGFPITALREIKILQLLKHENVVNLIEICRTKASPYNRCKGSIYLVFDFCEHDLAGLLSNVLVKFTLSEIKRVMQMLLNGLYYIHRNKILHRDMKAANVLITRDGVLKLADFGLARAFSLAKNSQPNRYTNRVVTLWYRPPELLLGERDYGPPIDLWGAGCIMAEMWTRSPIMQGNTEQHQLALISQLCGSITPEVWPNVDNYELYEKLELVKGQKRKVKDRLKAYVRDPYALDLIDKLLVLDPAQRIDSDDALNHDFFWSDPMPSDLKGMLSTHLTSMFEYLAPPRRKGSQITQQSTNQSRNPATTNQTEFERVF

Insulin receptor = Insulin receptor (Homo sapiens, UniProt P06213); test: Selectivity interaction (KinomeScan (DiscoverX)) EUB0000607a INSR; details: at 10 µM
Chain of Insulin receptor (P06213 28-758 limits assumed): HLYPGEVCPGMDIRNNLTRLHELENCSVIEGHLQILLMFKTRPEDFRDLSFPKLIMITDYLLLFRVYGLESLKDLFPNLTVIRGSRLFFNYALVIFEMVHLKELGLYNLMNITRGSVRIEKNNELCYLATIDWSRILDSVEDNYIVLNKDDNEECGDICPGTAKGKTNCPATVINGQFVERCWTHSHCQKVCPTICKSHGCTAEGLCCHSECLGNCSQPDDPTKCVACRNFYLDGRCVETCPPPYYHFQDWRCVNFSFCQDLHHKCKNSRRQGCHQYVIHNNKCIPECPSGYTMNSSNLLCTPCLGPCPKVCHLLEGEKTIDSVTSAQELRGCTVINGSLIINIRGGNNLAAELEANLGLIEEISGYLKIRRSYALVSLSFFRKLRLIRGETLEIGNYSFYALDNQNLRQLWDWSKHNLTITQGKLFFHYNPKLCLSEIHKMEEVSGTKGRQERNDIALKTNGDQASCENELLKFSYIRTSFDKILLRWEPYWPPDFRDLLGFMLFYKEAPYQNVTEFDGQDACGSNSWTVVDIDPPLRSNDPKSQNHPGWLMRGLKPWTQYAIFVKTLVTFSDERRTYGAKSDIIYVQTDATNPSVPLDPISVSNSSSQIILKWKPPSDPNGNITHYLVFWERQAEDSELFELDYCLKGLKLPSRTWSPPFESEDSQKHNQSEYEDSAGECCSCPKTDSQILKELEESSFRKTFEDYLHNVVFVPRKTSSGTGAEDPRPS
Chain of Insulin receptor (P06213 763-1382 limits assumed): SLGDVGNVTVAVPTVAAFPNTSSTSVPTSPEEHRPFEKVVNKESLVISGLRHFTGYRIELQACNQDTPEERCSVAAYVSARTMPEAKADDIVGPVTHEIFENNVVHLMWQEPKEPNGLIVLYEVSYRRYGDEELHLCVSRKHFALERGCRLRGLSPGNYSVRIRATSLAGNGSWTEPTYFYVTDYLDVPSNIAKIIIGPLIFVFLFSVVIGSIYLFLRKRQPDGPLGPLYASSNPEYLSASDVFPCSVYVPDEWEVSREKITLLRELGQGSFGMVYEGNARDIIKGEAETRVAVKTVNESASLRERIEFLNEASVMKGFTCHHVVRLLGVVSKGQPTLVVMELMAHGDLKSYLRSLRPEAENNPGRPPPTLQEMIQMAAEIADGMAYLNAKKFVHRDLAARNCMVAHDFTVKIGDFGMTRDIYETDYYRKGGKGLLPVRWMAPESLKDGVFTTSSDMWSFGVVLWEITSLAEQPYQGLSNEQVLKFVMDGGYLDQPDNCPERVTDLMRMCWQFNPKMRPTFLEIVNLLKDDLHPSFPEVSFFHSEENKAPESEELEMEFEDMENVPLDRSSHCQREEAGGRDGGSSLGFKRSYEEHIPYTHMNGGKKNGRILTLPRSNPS

[7] = molecular target: T2, Receptor-interacting serine/threonine-protein kinase 1 (Homo sapiens) (UniProt Q13546); test: Selectivity interaction (KinomeScan (DiscoverX)) EUB0000595a RIPK1; details: at 10 µM
T2 sequence (whole entry): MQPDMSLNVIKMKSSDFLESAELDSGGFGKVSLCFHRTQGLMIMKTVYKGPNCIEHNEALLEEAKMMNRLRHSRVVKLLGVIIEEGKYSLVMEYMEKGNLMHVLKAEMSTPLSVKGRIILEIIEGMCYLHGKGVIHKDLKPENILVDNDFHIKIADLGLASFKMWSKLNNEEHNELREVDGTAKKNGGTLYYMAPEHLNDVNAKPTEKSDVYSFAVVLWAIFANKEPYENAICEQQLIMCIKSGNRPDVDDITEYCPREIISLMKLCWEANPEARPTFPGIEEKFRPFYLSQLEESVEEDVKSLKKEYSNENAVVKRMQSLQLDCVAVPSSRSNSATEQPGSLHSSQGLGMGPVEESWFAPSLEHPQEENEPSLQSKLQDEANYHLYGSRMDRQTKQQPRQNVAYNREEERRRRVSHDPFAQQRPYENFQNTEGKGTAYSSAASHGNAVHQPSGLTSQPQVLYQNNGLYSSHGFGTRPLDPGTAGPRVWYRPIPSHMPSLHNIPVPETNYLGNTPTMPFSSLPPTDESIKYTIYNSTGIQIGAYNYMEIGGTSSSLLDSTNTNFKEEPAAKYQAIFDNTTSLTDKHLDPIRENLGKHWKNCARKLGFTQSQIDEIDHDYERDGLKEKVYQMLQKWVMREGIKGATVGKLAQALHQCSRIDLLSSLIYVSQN

COc1cc(N(C)c2ccnc3ccc(C(F)(F)F)cc23)cc(OC)c1OC showed a % binding [1] of 76%.
With CCC(=O)N1CCN(c2ccc(-n3c(=O)ccc4cnc5ccc(-c6cnc7ccccc7c6)cc5c43)cc2C(F)(F)F)CC1 the % of control [2] was 100%.
With CN(C)CCOc1ccc(-c2nc(-c3ccncc3)c(-c3ccc4c(c3)CC/C4=N\O)[nH]2)cc1 the % of control [3] was 88%.
Nc1cnc(N2CCc3cc(S(=O)(=O)Nc4c(F)cc(Cl)cc4F)cc(N4CCCC4=O)c32)nc1 [TP-020n] showed a % of control [4] of 100%.
With C=CC(=O)Nc1ccc(C(=O)Nc2[nH]nc3c2CN(C(=O)N[C@H](CN(C)C)c2ccccc2)C3(C)C)cc1 the % of engagement [5] was 3.6%.
Compound CC[C@@H]1[C@H](F)C(=O)N[C@@H]1COc1nccc2cc(C(N)=O)c(OC)cc12 [ZIMLOVISERTIB] has a % of inhibition ([6]; at 0.01 µM) of 16.2%, a % of inhibition ([6]; at 0.04 µM) of 0.9% and a % of inhibition ([6]; at 0.2 µM) of 2.5%. For the same compound, the % of inhibition ([6]; at 1 µM) was -1% and the % of inhibition ([6]; at 5 µM) was 33%.
CNC(=O)Nc1ccc(-c2nc(N3CC4CCC(C3)O4)c3cnn(C4CCC5(CC4)OCCO5)c3n2)cc1 was tested, and the % of control (Insulin receptor) was 84%.
For COCC(=O)NC/C=C/c1ccc2ncnc(Nc3ccc(Oc4ccc(C)nc4)c(C)c3)c2c1 [CP-724714], the % of control [7] was 100%.

From ChEMBL document CHEMBL5465560, “Selectivity Literature for EUbOPEN Chemogenomic Library” (2024)
